Results reported in PubChem BioAssay (NCI).
“And” between values parts separate entries of the source, which are not always exact repeats. Identical values can stand only once.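 Abbreviation: GI50, concentration required for 50% inhibition of growth. TGI is the concentration that stops growth completely.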

How the values were obtained:
Assay in all cases: DTP human tumour cell line panel, 384-well format
[1] = tested on: IGROV1 ovarian
[2] = tested on: A549 NSCLC
[3] = tested on: UACC-257 melanoma
[4] = tested on: U251 glioblastoma
[5] = tested on: SK-MEL-28 melanoma
[6] = tested on: HS 578T breast
[7] = tested on: SW-620 colon
[8] = tested on: DU-145 prostate
[9] = tested on: OVCAR-4 ovarian
[10] = tested on: SF-268 CNS
[11] = tested on: HOP-92 NSCLC
[12] = tested on: NCI-H23 lung
[13] = tested on: BT-549 breast
[14] = tested on: RXF 393 renal
[15] = tested on: UACC-62 melanoma
[16] = tested on: CAKI-1 renal
[17] = tested on: NCI-H522 lung
[18] = tested on: SN12C renal
[19] = tested on: 786-0 renal
[20] = tested on: SK-OV-3 ovarian
[21] = tested on: HL-60(TB) leukemia
[22] = tested on: NCI-H226 lung
[23] = tested on: PC-3 prostate
[24] = tested on: HT29 colon
[25] = tested on: SNB-19 CNS
[26] = tested on: SK-MEL-5 melanoma
[27] = tested on: SF-539 CNS
[28] = tested on: HCT-116 colon
[29] = tested on: TK-10 renal
[30] = tested on: MDA-MB-231 breast
[31] = tested on: OVCAR-3 ovarian
[32] = tested on: MDA-MB-435 melanoma
[33] = tested on: MCF7 breast
[34] = tested on: K-562 leukemia
[35] = tested on: SNB-75 CNS
[36] = tested on: MALME-3M melanoma
[37] = tested on: OVCAR-8 ovarian
[38] = tested on: HCT-15 colon
[39] = tested on: EKVX NSCLC
[40] = tested on: COLO 205 colon
[41] = tested on: ACHN renal
[42] = tested on: M14 melanoma
[43] = tested on: T-47D breast
[44] = tested on: SF-295 CNS
[45] = tested on: HOP-62 NSCLC
[46] = tested on: UO-31 renal
[47] = tested on: MDA-MB-468 breast
[48] = tested on: A498 renal
[49] = tested on: OVCAR-5 ovarian
[50] = tested on: SK-MEL-2 melanoma
[51] = tested on: NCI-H322M lung
[52] = tested on: KM12 colon
[53] = tested on: NCI-H460 NSCLC

With `COc1ccc(C2=N[C@@H](c3ccc(Cl)cc3)[C@@H](c3ccc(Cl)cc3)N2C(=O)N2CCNC(=O)C2)c(OC(C)C)c1` the GI50 [1] was 13.5 µM and 10.9 µM and 7.76 µM, the TGI [1] was 26.5 µM and 23 µM and 21 µM and the GI50 [2] was 14.6 µM and 2.28 µM and 2.23 µM. For the same molecule, the TGI [2] was 27.8 µM and 14.7 µM and 13.8 µM, the GI50 [3] was 15.5 µM and 5.8 µM and 8.65 µM and the TGI [3] was 28.9 µM and 18 µM and 20.8 µM. For the same molecule, the GI50 [4] was 14.7 µM and 13.7 µM and 10.9 µM, the TGI [4] was 28 µM and 26.7 µM and 22.9 µM and the GI50 [5] was 15.6 µM and 18.7 µM and 18 µM. The TGI [5] was 29 µM and 32.9 µM and 32 µM, the GI50 [6] was 13.4 µM and 12.8 µM and 12.2 µM and the TGI [6] was 26.2 µM and 25.5 µM and 24.7 µM. For the same molecule, the GI50 [7] was 13.1 µM and 11 µM and 3.58 µM, the TGI [7] was 26 µM and 23.3 µM and 19.4 µM and the GI50 [8] was 15.2 µM and 15.7 µM. The TGI [8] was 28.6 µM and 29.3 µM and 28.7 µM, the GI50 [9] was 14 µM and 14.2 µM and 13.8 µM and the TGI [9] was 27 µM and 27.4 µM and 26.8 µM. The GI50 [10] was 16.7 µM and 13.4 µM and 10.7 µM, the TGI [10] was 30.4 µM and 26.4 µM and 22.6 µM and the GI50 [11] was 15.2 µM and 13.4 µM and 11.8 µM. For the same molecule, the TGI [11] was 28.5 µM and 26.3 µM and 24.1 µM, the GI50 [12] was 14.5 µM and 15.1 µM and the TGI [12] was 27.6 µM and 28.5 µM. The GI50 [13] was 16.6 µM and 16.9 µM, the TGI [13] was 30.3 µM and 30.2 µM and 30.6 µM and the TGI [14] was 24.8 µM and 16.3 µM and 14.9 µM. The TGI [15] was 21.8 µM and 8.99 µM and 11.3 µM, the TGI [16] was 21.1 µM and 11.9 µM and 12.4 µM and the GI50 [17] was 14.1 µM and 15 µM and 14.8 µM. The TGI [17] was 27.1 µM and 28.3 µM and 28 µM, the GI50 [18] was 15.5 µM and 17.2 µM and 16.1 µM and the TGI [18] was 28.9 µM and 31 µM and 29.6 µM. For the same molecule, the GI50 [19] was 14.7 µM and 14 µM and 11.2 µM, the TGI [19] was 27.9 µM and 27.1 µM and 23.3 µM and the GI50 [20] was 19.7 µM and 16 µM and 12.9 µM. For the same molecule, the TGI [20] was 34 µM and 29.6 µM and 25.7 µM, the GI50 [21] was 2.99 µM and 3.06 µM and 3.55 µM and the TGI [21] was 12.9 µM and 15.7 µM and 15.8 µM. For the same molecule, the TGI [22] was 23.7 µM and 2.47 µM and 3.4 µM, the GI50 [23] was 12.5 µM and 13 µM and 12.6 µM and the TGI [23] was 25.1 µM and 25.8 µM and 25.2 µM. The GI50 [24] was 11.8 µM and 13.4 µM and 10.5 µM, the TGI [24] was 24.2 µM and 26.3 µM and 22.3 µM and the GI50 [25] was 14.3 µM and 14.6 µM. The TGI [25] was 27.4 µM and 27.9 µM, the GI50 [26] was 14.3 µM and 8.52 µM and 7.04 µM and the TGI [26] was 27.5 µM and 20.6 µM and 20 µM. The GI50 [27] was 16.1 µM and 13.7 µM and 10.6 µM, the TGI [27] was 29.6 µM and 26.8 µM and 22.4 µM and the TGI [28] was 24 µM and 14.5 µM and 12.8 µM. The GI50 [29] was 15.1 µM and 13.5 µM and 11.3 µM, the TGI [29] was 28.5 µM and 26.4 µM and 23.5 µM and the GI50 [30] was 17 µM and 14.1 µM and 12.9 µM. The TGI [30] was 30.8 µM and 27.1 µM and 25.6 µM, the GI50 [31] was 12.8 µM and 12 µM and 12.1 µM and the TGI [31] was 25.5 µM and 24.6 µM. For the same molecule, the GI50 [32] was 13.8 µM and 16.4 µM and 15.8 µM, the TGI [32] was 26.8 µM and 30.1 µM and 29.4 µM and the GI50 [33] was 3.43 µM and 1.73 µM and 0.718 µM. For the same molecule, the TGI [33] was 16.8 µM and 8.38 µM and 8.52 µM, the GI50 [34] was 11.4 µM and 4.93 µM and 2.55 µM and the TGI [34] was 23.9 µM and 20.3 µM and 17 µM. For the same molecule, the GI50 [35] was 13.3 µM and 11.9 µM and 11.6 µM, the TGI [35] was 26.1 µM and 24.2 µM and 23.9 µM and the GI50 [36] was 8.12 µM and 2.75 µM and 5.41 µM. The TGI [36] was 20.3 µM and 19.3 µM and 19.7 µM, the GI50 [37] was 15.6 µM and 11.9 µM and 10.5 µM and the TGI [37] was 29.1 µM and 24.4 µM and 22.3 µM. The GI50 [38] was 16 µM and 16.1 µM and 14 µM, the TGI [38] was 29.7 µM and 30.1 µM and 27.1 µM and the GI50 [39] was 15 µM and 15.3 µM and 14.6 µM. The TGI [39] was 28.3 µM and 28.7 µM and 27.8 µM, the GI50 [40] was 15.9 µM and 16.8 µM and 14.9 µM and the TGI [40] was 29.5 µM and 30.7 µM and 28.3 µM. For the same molecule, the TGI [41] was 24.2 µM and 11.4 µM and 11.2 µM, the GI50 [42] was 13.1 µM and 10 µM and 11.1 µM and the TGI [42] was 25.8 µM and 21.6 µM and 23.1 µM. The GI50 [43] was 17 µM and 14.7 µM and 13.8 µM, the TGI [43] was 30.7 µM and 28 µM and 26.7 µM and the GI50 [44] was 15.3 µM and 14.5 µM and 12.9 µM. For the same molecule, the TGI [44] was 28.7 µM and 27.7 µM and 25.7 µM, the GI50 [45] was 15.6 µM and 2.36 µM and 5.46 µM and the TGI [45] was 29.1 µM and 19.6 µM and 20.5 µM. For the same molecule, the GI50 [46] was 11.2 µM and 4.63 µM and 5.1 µM, the TGI [46] was 23.3 µM and 15.8 µM and 16 µM and the GI50 [47] was 12.4 µM and 11 µM and 11.5 µM. For the same molecule, the TGI [47] was 24.9 µM and 23 µM and 23.7 µM, the TGI [48] was 23.1 µM and 13.1 µM and 13.5 µM and the GI50 [49] was 16.9 µM and 17.6 µM and 16.7 µM. For the same molecule, the TGI [49] was 30.6 µM and 31.8 µM and 30.5 µM, the GI50 [50] was 18.7 µM and 18.1 µM and 14.5 µM and the TGI [50] was 32.7 µM and 32.1 µM and 27.7 µM. The GI50 [51] was 19.3 µM and 17.7 µM and 13.7 µM, the TGI [51] was 33.6 µM and 31.6 µM and 26.7 µM and the TGI [52] was 27.8 µM and 12.7 µM and 12.3 µM. For the same molecule, the GI50 [53] was 15.3 µM and 10.4 µM and 8.98 µM and the TGI [53] was 28.9 µM and 22.5 µM and 21.3 µM.
